Results on 43 compounds are retold here after US20090156582A1, “Pyrazole Compound” (priority 2005, published 2009).

The target of the experiment is T1, recombinant GSK3β enzyme (human GSK3β) (Homo sapiens, UniProt P49841).
T1 construct: FLAG (N); made in house; host or cells: Sf-21 insect cells, recombinant baculovirus (pFASTBAC1 / BAC-TO-BAC)
T1 sequence (P49841 whole entry): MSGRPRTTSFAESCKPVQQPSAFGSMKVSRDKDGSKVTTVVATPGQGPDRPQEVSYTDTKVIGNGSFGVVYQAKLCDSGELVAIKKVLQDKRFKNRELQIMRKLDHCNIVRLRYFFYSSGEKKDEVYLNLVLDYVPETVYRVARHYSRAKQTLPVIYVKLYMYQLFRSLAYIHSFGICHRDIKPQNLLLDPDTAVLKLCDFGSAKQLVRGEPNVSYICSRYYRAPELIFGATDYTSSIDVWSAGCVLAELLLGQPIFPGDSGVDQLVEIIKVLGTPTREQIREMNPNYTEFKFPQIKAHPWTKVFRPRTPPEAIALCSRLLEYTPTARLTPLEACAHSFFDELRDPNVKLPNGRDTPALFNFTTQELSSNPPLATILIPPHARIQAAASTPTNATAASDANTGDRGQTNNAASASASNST
Briefly: Measurement of GSK3β inhibitory activity. In kind it is biochemical. The settings on record: glycogen synthase peptide substrate, Kinase Glo luminescence, read-out: IC50 (concentration of test compound needed for 50% inhibition of luminescent intensity), GSK3β inhibitory activity. An excerpt:
Human GSK3β gene was cloned by a PCR method using a primer set:
prepared using human brain cDNA (Clontech; trade name: QUICK-Clone cDNA) as a template and in reference to the base sequence of GSK3β gene registered in GenBank under Accession Number NM_002093.
PCR was done according to the protocol attached to KOD plus DNA polymerase (Toyo Boseki Kabushiki Kaisha). The obtained PCR product was electrophoresed on agarose gel (1%), and 1.2 kb of DNA fragment including GSK3β gene was collected from the gel and then digested with restriction enzymes EcoR I and Sal I. The restriction enzyme-treated DNA was electrophoresed on agarose gel (1%). The obtained DNA fragment was collected, and ligated to the plasmid pFASTBAC1 (Invitrogen), which had been digested with restriction enzyme EcoR I and Sal I, to produce expression plasmid pFB-GSK3B. The base sequence of insertion fragment was confirmed to find that it corresponded to the objective sequence. In addition, virus stock BAC-GSK3B of recombinant Baculovirus was prepared using BAC-TO-BAC Baculovirus Expression System (Invitrogen).
Sf-21 cells (Invitrogen) were seeded on Sf-900 II SFM medium (Invitrogen)(150 ml) containing 10% fetal calf serum at 1×10^6 cells/ml, and cultured at 27° C. for 24 hr. The virus stock […] obtained above of recombinant Baculovirus was added by 150 μl to the obtained culture medium, and the cells were cultured for another 60 hr. The culture medium was centrifuged (3000 rpm, 10 min) to separate the cells, and the cells were washed once with PBS. The cells were suspended in 10 ml of cell lysis buffer (25 mM HEPES (pH 7.5), 1% Triton X, 130 mM sodium chloride, 1 mM EDTA, 1 mM Dithiothreitol, 25 mM β-glycerophosphate, Protease inhibitor Complete (Boehringer), 1 mM Sodium orthovanadate), treated 4 times using a homogenizer (POLYTRON) at 20000 rpm for 30 sec to disrupt the cells. The disrupted solution of cells was centrifuged (40000 rpm, 45 min.), and GSK3β was purified from the obtained supernatant using Anti-FLAG M2 Affinity Gel (Sigma Ltd.).
10 μl of ATP solution (2.5 μM ATP) was added to the obtained mixture, and the mixture was reacted at room temperature for 30 min. Kinase Glo Reagent (Promega) (50 μl) was added to the reaction solution to stop the reaction. After reaction at room temperature for 10 min, the luminescent intensity was measured using ARVO multilabel counter (PerkinElmer Life Sciences). The concentrations of the test compounds needed for 50% inhibition of luminescent intensity (IC50 value) were calculated by PRISM 3.0 (GraphPad Software).
As for `O=C(Nc1c[nH]nc1C(=O)NCc1ccco1)c1ccc(F)cc1F` [compound 156], the IC50 was < 100 nM.
To `CNC(=O)c1n[nH]cc1NC(=O)C1CCCCC1` [compound 005] belongs 307 nM; to `O=C(Nc1c[nH]nc1C(=O)NCC(F)(F)F)c1ccccc1` [Example 422, 4-(benzoylamino)-N-(2,2,2-trifluoroethyl)-1H-pyrazole-3-carboxamide], < 100 nM.
As to `O=C(Nc1c[nH]nc1C(=O)NCCc1ccccc1)c1ccccc1` [Example 131, 4-benzoylamino-N-(2-phenylethyl)-1H-pyrazole-3-carboxamide], the IC50 is < 100 nM.
With `Cc1ncccc1C(=O)Nc1c[nH]nc1C(=O)NC1CCCC1` [Example 363, N-(3-((cyclopentylamino)carbonyl)-1H-pyrazol-4-yl)-2-methylnicotinamide], the IC50 is < 100 nM.
For `CCOCC(=O)Nc1c[nH]nc1C(=O)NCc1ccco1` [Example 147, 4-[(ethoxyacetyl)amino]-N-(2-furylmethyl)-1H-pyrazole-3-carboxamide], the IC50 was < 100 nM.
In the case of `CC(C)OCCNC(=O)c1n[nH]cc1NC(=O)c1ccccn1` [Example 357, N-(3-(((2-isopropoxyethyl)amino)carbonyl)-1H-pyrazol-4-yl)pyridine-2-carboxamide], the IC50 is < 100 nM.
To `O=C(COc1ccccc1)Nc1c[nH]nc1C(=O)NCc1ccco1` [Example 145, N-(2-furylmethyl)-4-[(phenoxyacetyl)amino]-1H-pyrazole-3-carboxamide] belongs < 100 nM; to `CC(=O)Nc1cccc(C(=O)Nc2c[nH]nc2C(=O)NCCc2ccccc2)c1` [Example 137, 4-{[3-(acetylamino)benzoyl]amino}-N-(2-phenylethyl)-1H-pyrazole-3-carboxamide], < 100 nM.
To `O=C(Nc1c[nH]nc1C(=O)NCCc1ccccc1)c1ccc(Oc2ccccc2)cc1` [Example 135, 4-[(4-phenoxybenzoyl)amino]-N-(2-phenylethyl)-1H-pyrazole-3-carboxamide] belongs < 100 nM; to `O=C(Nc1c[nH]nc1C(=O)NCCC(F)(F)F)c1ccccn1` [Example 393, N-(3-(((3,3,3-trifluoropropyl)amino)carbonyl)-1H-pyrazol-4-yl)pyridine-2-carboxamide], < 100 nM; to `O=C(COc1ccccc1)Nc1c[nH]nc1C(=O)NCc1ccccc1` [Example 101, N-benzyl-4-[(phenoxyacetyl)amino]-1H-pyrazole-3-carboxamide], < 100 nM.
Turning to `CC(C)NC(=O)c1n[nH]cc1NC(=O)c1ccc2[nH]ccc2c1` [compound 036], the IC50 was < 100 nM.
To `N#Cc1ccc(NCCNC(=O)c2n[nH]cc2NC(=O)c2ccccn2)nc1` [Example 350] belongs < 100 nM.
As for `CCCN(CCC)S(=O)(=O)c1ccc(C(=O)Nc2c[nH]nc2C(=O)NC2CCCC2)cc1` [compound 074], the IC50 is 299 nM.
Take `O=C(Nc1c[nH]nc1C(=O)NCc1ccco1)c1ccc(OC(F)(F)F)cc1` [compound 160]: the IC50 amounted to 194 nM.
`CC(=O)Nc1c[nH]nc1C(=O)NC(C)C` [compound 017]: the IC50 is < 100 nM.
With `COc1ccccc1CC(=O)Nc1c[nH]nc1C(=O)NCCc1ccccc1` [Example 129, 4-{[(2-methoxyphenyl)acetyl]amino}-N-(2-phenylethyl)-1H-pyrazole-3-carboxamide], the IC50 was found to be 157 nM.
On to `O=C(CCc1ccccc1)Nc1c[nH]nc1C(=O)NCc1ccco1` [Example 149, N-(2-furylmethyl)-4-[(3-phenylpropanoyl)amino]-1H-pyrazole-3-carboxamide], for which the IC50 amounted to 334 nM.
With `O=C(Nc1c[nH]nc1C(=O)NCCCOc1ccccc1)c1ccccn1` [Example 391, N-(3-(((3-phenoxypropyl)amino)carbonyl)-1H-pyrazol-4-yl)pyridine-2-carboxamide], the IC50 was < 100 nM.
Regarding `O=C(Nc1c[nH]nc1C(=O)NC1CCCC1)c1ccccn1` [Example 344, N-(3-((cyclopentylamino)carbonyl)-1H-pyrazol-4-yl)pyridine-2-carboxamide], the IC50 was < 100 nM.
As for `CC(=O)Nc1cccc(C(=O)Nc2c[nH]nc2C(=O)NCCS(=O)(=O)c2ccccn2)c1` [Example 384, 4-((3-(acetylamino)benzoyl)amino)-N-(2-(pyridin-2-ylsulfonyl)ethyl)-1H-pyrazole-3-carboxamide], the IC50 is < 100 nM.
Turning to `COc1ccc(C(=O)Nc2c[nH]nc2C(=O)NC2CCCC2)cc1` [compound 072], the IC50 is < 100 nM.
To `O=C(Nc1c[nH]nc1C(=O)NCCc1ccc(Br)cc1)c1ccccn1` [Example 351, N-(3-(((2-(4-bromophenyl)ethyl)amino)carbonyl)-1H-pyrazol-4-yl)pyridine-2-carboxamide] belongs < 100 nM; to `O=C(Nc1c[nH]nc1C(=O)NCc1ccco1)c1cnccn1` [compound 162], < 100 nM.
`CC(=O)Nc1cccc(C(=O)Nc2c[nH]nc2C(=O)NCc2ccco2)c1` [compound 159]: the IC50 is < 100 nM.
To `O=C(CCc1ccccc1)Nc1c[nH]nc1C(=O)Nc1ccccc1` [compound 087] belongs 115 nM; to `O=C(Nc1c[nH]nc1C(=O)NCc1ccccc1)c1ccc(F)cc1F` [Example 113, N-benzyl-4-[(2,4-difluorobenzoyl)amino]-1H-pyrazole-3-carboxamide], < 100 nM.
In the case of `O=C(Nc1c[nH]nc1C(=O)NC1CCCC1)c1ccc(C(F)(F)F)cc1` [compound 071], the IC50 is < 100 nM.
To `Cc1cccc(C(=O)Nc2c[nH]nc2C(=O)NCCOc2ccc(F)cc2)n1` [Example 428] belongs < 100 nM; to `Cc1cccc(C(=O)Nc2c[nH]nc2C(=O)NCC(F)(F)F)n1` [Example 389, 6-methyl-N-(3-(((2,2,2-trifluoroethyl)amino)carbonyl)-1H-pyrazol-4-yl)pyridine-2-carboxamide], < 100 nM.
As for `O=C(Nc1c[nH]nc1C(=O)Nc1cccc(C(F)(F)F)c1)c1ccccn1` [Example 343, N-(3-(((3-(trifluoromethyl)phenyl)amino)carbonyl)-1H-pyrazol-4-yl)pyridine-2-carboxamide], the IC50 is < 100 nM.
Turning to `CS(=O)(=O)Nc1c[nH]nc1C(=O)NC1CCCC1` [compound 227, N-cyclopentyl-4-methanesulfonylamino-1H-pyrzole-3-carboxamide], the IC50 worked out at 274 nM.
As for `O=C(Nc1c[nH]nc1C(=O)NC1CCCC1)c1ccc2[nH]ccc2c1` [compound 077], the IC50 was < 100 nM.
For `CCOCC(=O)Nc1c[nH]nc1C(=O)NC1CCCC1` [compound 064], the IC50 was < 100 nM.
To `N#CCCNC(=O)c1n[nH]cc1NC(=O)c1cccc(C#N)c1` [Example 417, N-(2-cyanoethyl)-4-(3-cyanobenzoylamino)-1H-pyrazole-3-carboxamide] belongs < 100 nM; to `O=C(Nc1c[nH]nc1C(=O)NCc1ccccc1)c1ccccc1` [Example 109, 4-(benzoylamino)-N-benzyl-1H-pyrazole-3-carboxamide], < 100 nM.
For `O=C(COc1ccccc1)Nc1c[nH]nc1C(=O)Nc1ccccc1` [compound 083], the IC50 was < 100 nM.
As for `CC(=O)Nc1cccc(C(=O)Nc2c[nH]nc2C(=O)NCc2ccccc2)c1` [Example 116, 4-{[3-(acetylamino)benzoyl]amino}-N-benzyl-1H-pyrazole-3-carboxamide], the IC50 is < 100 nM.
To `COCCNC(=O)c1n[nH]cc1NC(=O)c1cccc(NC(C)=O)c1` [Example 370, 4-((3-(acetylamino)benzoyl)amino)-N-(2-methoxyethyl)-1H-pyrazole-3-carboxamide] belongs < 100 nM; to `CC(=O)Nc1cccc(C(=O)Nc2c[nH]nc2C(=O)NCC(=O)c2ccccc2)c1` [Example 374, 4-((3-(acetylamino)benzoyl)amino)-N-(2-oxo-2-phenylethyl)-1H-pyrazole-3-carboxamide], < 100 nM.
In the case of `O=C(Nc1c[nH]nc1C(=O)NCc1ccco1)c1ccc2[nH]ccc2c1` [compound 161], the IC50 is < 100 nM.
To `O=C(Nc1c[nH]nc1C(=O)NCCc1c[nH]c2ccccc12)c1ccccn1` [Example 348, N-(3-(((2-(1H-indol-3-yl)ethyl)amino)carbonyl)-1H-pyrazol-4-yl)pyridine-2-carboxamide] belongs < 100 nM.
